Source: patent publication US20230138851A1, “NOVEL ALKYNE DERIVATIVES” (CARNA BIOSCIENCES, INC., priority 2020, published 2023)

Assays:
Format in all cases: biochemical
DYRK1A = target: T1, DYRK1A (Homo sapiens, UniProt Q13627); test: Inhibition test on activity of DYRK family, mobility shift assay (MSA), DYRK1A; conditions: ATP 100 μM, FITC-labeled DYRKtide peptide substrate, room temperature 1 hour; for IC50: read-out: Inhibitory Activity 1a (IC50 against DYRK1A)
T1 construct: purchased Carna Biosciences, Inc. 04-130
Method: (§1) [Inhibition Test on Activity of DYRK Family (DYRK1A, DYRK1B, DYRK2, and […])]
(§2) (Method for Measuring Kinase Activity)
(§3) The kinase activity was measured by mobility shift assay (MSA) method using QuickScout Screening Assist™ MSA (commercially available kit manufactured by Carna Biosciences, Inc.). The substrate of the kinase reaction used was an FITC-labeled DYRKtide peptide included in the kit. An assay buffer [20 mM HEPES, 0.01% Triton X-100™, 2 mM dithiothreitol, pH 7.5] was used to create a substrate mixture solution with a substrate (4 μM), MgCl2 (20 mM), and ATP (DYRK1A: 100 μM; DYRK1B: 200 μM; DYRK2: 40 μM; and DYRK3: 20 μM). In addition, kinases (DYRK1A: manufactured by Carna Biosciences, Inc., Cat. No. 04-130; DYRK1B: manufactured by Carna Biosciences, Inc., Cat. No. 04-131; DYRK2; manufactured by Carna Biosciences, Inc., Cat. No. 04-132; and DYRK3; manufactured by Carna Biosciences, Inc., Cat. No. 04-133) were diluted with the assay buffer to prepare enzyme solutions (DYRK1A: 0.2 ng/μL; DYRK1B: 0.08 ng/μL; DYRK2: 0.04 ng/μL; and DYRK3: 0.25 ng/μL). The 10 mM solution of the test compound in DMSO was further diluted with DMSO to 10 levels of the concentration (0.00003 mM, 0.0001 mM, 0.0003 mM, 0.001 mM, 0.003 mM, 0.01 mM, 0.03 mM, 0.1 mM, 0.3 mM, and 1 mM), each of which was subjected to 25-fold dilution with the assay buffer to obtain a drug solution (4% DMSO solution). 5 μL of the drug solution or a control solution (4% DMSO-assay buffer), 5 μL of the substrate mixture solution, and 10 μL of the enzyme solution were mixed in the wells of a polypropylene 384-well plate and allowed to react at room temperature for 1 hour, and then the reaction was quenched by adding 60 μL of the termination buffer included in the kit. Subsequently, the quantities of the substrates (S) and the phosphorylated substrate (P) in the reaction solution were measured using LabChip EZ Reader II system (manufactured by Caliper Life Sciences) according to the protocol of the assay kit.
(§4) (Method for Evaluating Inhibitory Activity)
(§5) The heights of the peaks of the “substrate” and the “phosphorylated substrate” were expressed as S and P, respectively, and a blank containing the assay buffer instead of the enzyme solution was also measured.
(§6) The inhibition rate (%) of the test compound was calculated according to the following equation:
(§7) Inhibition rate (%)=(1−(C−A)/(B−A))×100
(§8) wherein, A, B, and C represent P/(P+S) of the blank well, P/(P+S) of the control solution well, and P/(P+S) of the compound-containing well, respectively.
(§9) The IC50 value was calculated via a regression analysis of the inhibition rate and the test compound concentration (logarithmic value).
(§10) The inhibiting activities of representative compounds of the present invention are shown against DYRK1A, DYRK1B, DYRK2, and DYRK3 in Tables 7 and 8. The kinase activity inhibitory effect was indicated with the mark *** at an IC50 value of less than 0.01 μM; the mark ** at 0.01 μM or more and less than 0.1 μM; the mark * at 0.1 μM or more and less than 1 μM; and the mark — at 1 μM or more (N.D. indicates not measured).

DYRK2 = target: T2, DYRK2 (Homo sapiens, UniProt Q92630); test: Inhibition test on activity of DYRK family, mobility shift assay (MSA), DYRK2; conditions: ATP 40 μM, FITC-labeled DYRKtide peptide substrate, room temperature 1 hour; for IC50: read-out: Inhibitory Activity 2 (IC50 against DYRK2)
T2 construct: purchased Carna Biosciences, Inc. 04-132
T2 sequence (Q92630 1-601): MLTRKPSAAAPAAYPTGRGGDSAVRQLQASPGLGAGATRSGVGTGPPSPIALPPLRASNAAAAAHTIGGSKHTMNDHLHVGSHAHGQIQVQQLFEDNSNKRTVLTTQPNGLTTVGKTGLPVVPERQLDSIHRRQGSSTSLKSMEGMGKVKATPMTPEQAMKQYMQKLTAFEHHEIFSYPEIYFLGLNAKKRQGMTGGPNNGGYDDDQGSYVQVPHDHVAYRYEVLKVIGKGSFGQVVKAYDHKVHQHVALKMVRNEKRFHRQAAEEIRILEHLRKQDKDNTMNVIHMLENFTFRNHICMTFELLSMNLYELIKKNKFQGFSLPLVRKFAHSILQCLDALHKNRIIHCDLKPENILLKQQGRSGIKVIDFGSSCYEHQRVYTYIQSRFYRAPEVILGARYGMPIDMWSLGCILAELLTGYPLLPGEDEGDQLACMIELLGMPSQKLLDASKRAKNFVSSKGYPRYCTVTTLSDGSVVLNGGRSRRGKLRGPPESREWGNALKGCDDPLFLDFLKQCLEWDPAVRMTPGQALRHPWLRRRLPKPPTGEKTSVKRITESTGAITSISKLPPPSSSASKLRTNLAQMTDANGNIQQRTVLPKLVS
Method: as §1, §2, §3, §4, §5, §6, §7, §8, §9, §10

DYRK3 = target: T3, DYRK3 (Homo sapiens, UniProt O43781); test: Inhibition test on activity of DYRK family, mobility shift assay (MSA), DYRK3; conditions: ATP 20 μM, FITC-labeled DYRKtide peptide substrate, room temperature 1 hour; for IC50: read-out: Inhibitory Activity 3 (IC50 against DYRK3)
T3 construct: purchased Carna Biosciences, Inc. 04-133
T3 sequence (O43781 1-588): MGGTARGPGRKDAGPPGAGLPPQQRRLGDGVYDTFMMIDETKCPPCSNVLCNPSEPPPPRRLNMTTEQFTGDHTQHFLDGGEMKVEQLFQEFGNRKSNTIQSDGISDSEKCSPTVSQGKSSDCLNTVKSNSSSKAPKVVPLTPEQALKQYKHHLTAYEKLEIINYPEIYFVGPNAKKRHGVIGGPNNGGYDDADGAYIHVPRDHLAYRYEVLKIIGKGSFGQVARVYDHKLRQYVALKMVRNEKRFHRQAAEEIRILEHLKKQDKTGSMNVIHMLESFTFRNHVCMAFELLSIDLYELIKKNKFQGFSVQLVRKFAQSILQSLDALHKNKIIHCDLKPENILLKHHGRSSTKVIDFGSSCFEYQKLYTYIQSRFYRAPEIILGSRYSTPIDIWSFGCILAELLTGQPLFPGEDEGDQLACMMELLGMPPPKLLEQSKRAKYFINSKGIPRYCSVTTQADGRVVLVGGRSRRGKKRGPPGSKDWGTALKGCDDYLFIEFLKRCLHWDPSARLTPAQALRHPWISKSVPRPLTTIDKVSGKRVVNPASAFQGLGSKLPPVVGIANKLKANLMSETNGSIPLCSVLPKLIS
Method: as §1, §2, §3, §4, §5, §6, §7, §8, §9, §10

SMILES | Inhibitory Activity 1a (IC50 against DYRK1A) (DYRK1A) | IC50 (DYRK2) [nM] | IC50 (DYRK3) [nM] | IC50 (DYRK1A) [nM] | Inhibitory Activity 2 (IC50 against DYRK2) (DYRK2) | Inhibitory Activity 3 (IC50 against DYRK3) (DYRK3)
C#CC1CNC(=O)N1c1nc2c3c(ccc2s1)OCC3 (racemic) [Example 12, (RS)-1-(7,8-dihydrobenzofuro[4,5-d]thiazol-2-yl)-5-ethynylimidazolidin-2-on] | * * * |  |  |  | * * | * *
CC(C)(O)C#CC1CNC(=O)N1c1nc2c3c(ccc2s1)OCC3 (racemic) [Example 22, (RS)-1-(7,8-dihydrobenzofuro[4,5-d]thiazol-2-yl)-5-(3-hydroxy-3-methylbut-1-yn-1-yl)imidazolidin-2-one] | * * | ≥ 1000 | ≥ 1000 |  |  | 
CC#C[C@H]1[C@@H](C)NC(=O)N1c1nc2c3c(ccc2s1)OCC3 [Example 17, (4R,5S)-1-(7,8-dihydrobenzofuro[4,5-d]thiazol-2-yl)-4-methyl-5-(prop-1-yn-1-yl)imidazolidin-2-one] |  | ≥ 1000 | ≥ 1000 | 100 to 1000 |  | 
CC#CC1CNC(=O)N1c1nc2c3c(ccc2s1)OCC(=O)N3C (racemic) [Example 46, (RS)-9-methyl-2-[2-oxo-5-(prop-1-yn-1-yl)imidazolidin-1-yl]-7H-thiazolo[4′,5′:3,4]benz[1,2-b][1,4]oxazin-8(9H)-one] | * * | ≥ 1000 | 100 to 1000 |  |  | 
C#CC1CNC(=O)N1c1nc2c3c(ccc2s1)OCC3 (single isomer, unassigned) [Example 13, 1-(7,8-dihydrobenzofuro[4,5-d]thiazol-2-yl)-5-ethynylimidazolidin-2-one] | * * * |  |  |  | * * | * *
O=C1NCC(C#Cc2ccccc2)N1c1nc2c3c(ccc2s1)OCC3 (racemic) [Example 15, (RS)-1-(7,8-dihydrobenzofuro[4,5-d]thiazol-2-yl)-5-(phenylethynyl)imidazolidin-2-one] |  | ≥ 1000 | ≥ 1000 | 100 to 1000 |  | 
CC#C[C@@H]1[C@H](C(C)C)NC(=O)N1c1nc2c3c(ccc2s1)OCC3 [Example 68, (4S,5R)-1-(7,8-dihydrobenzofuro[4,5-d]thiazol-2-yl)-4-isopropyl-5-(prop-1-yn-1-yl)imidazolidin-2-one] | * * * | ≥ 1000 | 100 to 1000 |  |  | 

Now from value to molecule:

Inhibitory Activity 1a (IC50 against DYRK1A) (DYRK1A) | IC50 (DYRK2) [nM] | IC50 (DYRK3) [nM] | IC50 (DYRK1A) [nM] | Inhibitory Activity 2 (IC50 against DYRK2) (DYRK2) | Inhibitory Activity 3 (IC50 against DYRK3) (DYRK3) | SMILES
* * * | ≥ 1000 | 100 to 1000 |  |  |  | CC#CC1CNC(=O)N1c1nc2c(ccc3ocnc32)s1 (single isomer, unassigned) [Example 52, 5-(prop-1-yn-1-yl)-1-(thiazolo[5′,4′:5,6]benz[1,2-d]oxazol-7-yl)imidazolidin-2-one]
 | ≥ 1000 | ≥ 1000 | 100 to 1000 |  |  | CC#CC1CNC(=O)N1c1nc2c3c(ccc2s1)OCC(C)N3C (single isomer, unassigned) [Example 48, 1-(-8,9-dimethyl-8,9-dihydro-7H-thiazolo[4′,5′:3,4]benz[1,2-b][1,4]oxazin-2-yl)-5-(prop-1-yn-1-yl)imidazolidin-2-one]
* * * | 100 to 1000 | 100 to 1000 |  |  |  | CC#C[C@H]1[C@H](CO)NC(=O)N1c1nc2c3c(ccc2s1)OCCO3 (single isomer, unassigned) [Example 65, trans-1-(7,8-dihydro-[1,4]dioxino[2′,3′:5,6]benz[1,2-d]thiazol-2-yl)-4-(hydroxymethyl)-5-(prop-1-yn-1-yl)imidazolidin-2-one]
* * | ≥ 1000 | 100 to 1000 |  |  |  | CN(C)CC#CC1CNC(=O)N1c1nc2c3c(ccc2s1)OCC3 (racemic) [Example 18, (RS)-1-(7,8-dihydrobenzofuro[4,5-d]thiazol-2-yl)-5-[3-(dimethylamino)prop-1-yn-1-yl]imidazolidin-2-one]
 | ≥ 1000 | ≥ 1000 | 100 to 1000 |  |  | CC#CC1CNC(=O)N1c1nc2c(ccc3ocnc32)s1 (single isomer, unassigned) [Example 53, 5-(prop-1-yn-1-yl)-1-(thiazolo[5′,4′:5,6]benz[1,2-d]oxazol-7-yl)imidazolidin-2-one]
 | ≥ 1000 | ≥ 1000 | ≥ 1000 |  |  | CC#C[C@H]1[C@H](C)NC(=O)N1c1nc2c3c(ccc2s1)OCC3 [Example 4, (4S,5S)-1-(7,8-dihydrobenzofuro[4,5-d]thiazol-2-yl)-4-methyl-5-(prop-1-yn-1-yl)imidazolidin-2-one]
* * * | 100 to 1000 | 100 to 1000 |  |  |  | CC#C[C@@H]1[C@H](CC)NC(=O)N1c1nc2c3c(ccc2s1)OCC3 (relative stereo) [Example 73, cis-1-(7,8-dihydrobenzofuro[4,5-d]thiazol-2-yl)-4-ethyl-5-(prop-1-yn-1-yl)imidazolidin-2-one]
* * | 100 to 1000 | 100 to 1000 |  |  |  | CC#CC1CNC(=O)N1c1nc2c3c(ccc2s1)OCCN3C1CC1 (racemic) [Example 45, (RS)-1-(9-cyclopropyl-8,9-dihydro-7H-thiazolo[4′,5′:3,4]benz[1,2-b][1,4]oxazin-2-yl)-5-(prop-1-yn-1-yl)imidazolidin-2-one]
